Source: patent US5912405A, “Enhancers such as acetosyringone” (Novo Nordisk A/S, priority 1994, dated 1999)
Blank lines part the entries; values can stand above or below the molecule they belong to.

Legend:
Format in all cases: biochemical
[1] = biological target: T1, Coprinus cinereus peroxidase (CiP) (Coprinopsis cinerea, UniProt P28314); assay: Initial bleaching of Chicago Sky Blue 6B (CSB) with Coprinus cinereus peroxidase and enhancers; settings: 5 μM enhancer, 20 μM H2O2, 30° C.
T1 construct: made in house
T1 sequence (P28314 21-363): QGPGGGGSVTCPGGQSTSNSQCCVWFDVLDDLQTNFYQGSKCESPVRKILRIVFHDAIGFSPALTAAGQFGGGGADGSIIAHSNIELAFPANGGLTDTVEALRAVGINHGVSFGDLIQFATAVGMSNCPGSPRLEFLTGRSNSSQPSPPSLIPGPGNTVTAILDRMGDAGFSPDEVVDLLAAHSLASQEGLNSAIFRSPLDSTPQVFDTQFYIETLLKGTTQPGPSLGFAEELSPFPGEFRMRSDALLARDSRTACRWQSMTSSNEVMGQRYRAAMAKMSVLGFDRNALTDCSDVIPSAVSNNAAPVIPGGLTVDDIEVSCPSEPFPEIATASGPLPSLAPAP
Protocol: (§1) The bleaching rate of Direct Blue 1 (DB1) by purified CiP was determined using the following conditions: […]
(§2) Reagents were mixed in a thermostated cuvette at 30° C. and the bleaching was started by addition of hydrogen peroxide. The bleaching was detected spectrophotometrically at 610 nm, which is the wavelength of the absorption peak of DB1. Bleaching was followed for 1 minute, and the initial reduction in absorbance, --ΔmAbs/minute, was determined.
Bleaching tests were performed in exactly the same way as described in Example 2 except that instead of using DB1 Chigaco Sky Blue (CSB) (obtainable from Aldrich) was used, and the following enhancers were tested: […]

[2] = tested on: laccase obtained from Coprinus plicatilis; assay: Bleaching of Direct Blue 1 using Coprinus plicatilis laccase and methylsyringate; settings: 10 μM methylsyringate, 30° C.
Protocol: (§3) Bleaching of the dye Direct Blue 1 at various pH values was conducted using a laccase obtained from Coprinus comatus, Coprinus friesii, Coprinus plicatilis, Panaeolus papilionaceus or Psathyrella condolleana and methylsyringate.
(§4) After fermentation the culture broths were centrifugated and the supernatants were used in the tests described below.
(§5) The bleaching rate of DB1 was determined using the following conditions: […]
(§6) Reagents were mixed in a 1 ml thermostated cuvette at 30° C. and the bleaching was started by addition of the laccase.
(§7) The bleaching was followed spectrophotometrically at 610 nm, which is the wavelength of the absorption peak of DB1, with readings every 5 sec. for a period of 5 minutes. The initial bleaching rate was determined from the first linear part of the absorbance curve.

[3] = tested on: laccase obtained from Panaeolus papilionaceus; assay: Bleaching of Direct Blue 1 using Panaeolus papilionaceus laccase and methylsyringate; settings: 10 μM methylsyringate, 30° C.
Protocol: as §3, §4, §5, §6, §7

[4] = tested on: laccase obtained from Coprinus comatus; assay: Bleaching of Direct Blue 1 using Coprinus comatus laccase and methylsyringate; settings: 10 μM methylsyringate, 30° C.
Protocol: as §3, §4, §5, §6, §7

[5] = tested on: laccase obtained from Coprinus friesii; assay: Bleaching of Direct Blue 1 using Coprinus friesii laccase and methylsyringate; settings: 10 μM methylsyringate, 30° C.
Protocol: as §3, §4, §5, §6, §7

[6] = tested on: laccase obtained from Psathyrella condolleana; assay: Bleaching of Direct Blue 1 using Psathyrella condolleana laccase and methylsyringate; settings: 10 μM methylsyringate, 30° C.
Protocol: as §3, §4, §5, §6, §7

[7] = biological target: T1, Coprinus cinereus peroxidase (CiP); assay: Initial bleaching of Direct Blue 1 with Coprinus cinereus peroxidase and enhancers; settings: 5 μM enhancer, 20 μM H2O2, 30° C.
Protocol: A Coprinus cinereus peroxidase (CiP), obtained as described in WO 9412621 was used.
Dilutions of CiP were made in a solution of 0.15 gram/l of Triton X-405.
as §1, §2

[8] = biological target: T2, Coprinus cinereus laccase (Coprinopsis cinerea, UniProt Q9Y780); assay: Bleaching of Direct Blue 1 using Coprinus cinereus laccase with/without enhancing agents at pH 5.5-8.5; settings: C. cinereus laccase 1 mg/l, 10 μM enhancing agent, 30° C.
T2 sequence (Q9Y780 19-539): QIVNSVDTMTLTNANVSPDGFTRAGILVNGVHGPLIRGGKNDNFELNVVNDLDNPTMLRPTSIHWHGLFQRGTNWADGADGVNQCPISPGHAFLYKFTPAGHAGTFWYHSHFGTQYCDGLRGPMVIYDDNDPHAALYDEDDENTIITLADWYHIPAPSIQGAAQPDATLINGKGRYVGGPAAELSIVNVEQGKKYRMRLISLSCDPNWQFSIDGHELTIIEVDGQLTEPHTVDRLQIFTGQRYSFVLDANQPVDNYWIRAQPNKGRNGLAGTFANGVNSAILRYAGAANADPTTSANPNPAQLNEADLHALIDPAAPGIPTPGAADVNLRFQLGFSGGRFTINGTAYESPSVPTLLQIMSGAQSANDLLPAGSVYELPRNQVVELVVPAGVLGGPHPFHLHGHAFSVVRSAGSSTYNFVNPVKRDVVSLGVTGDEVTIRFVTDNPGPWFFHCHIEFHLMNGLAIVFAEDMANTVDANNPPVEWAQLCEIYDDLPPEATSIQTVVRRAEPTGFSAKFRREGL
Protocol: Bleaching of the dye Direct Blue 1 at various pH values was conducted using Coprinus cinereus laccase and one of the following enhancing agents:
The laccase was obtained in the following way: Coprinus cinereus (IFO 30116--freely available to the public from Institute of Fermentation, Osaka (IFO) under the indicated deposit number) was inoculated from a PDA agar slant (PDA: 39 g/l potato dextrose agar) into a 100 ml shake flask containing medium A (Medium A is described in Example 3). The culture was cultivated for 6 days at 26° C. and 100 rpm. A 10-liter fermentor containing medium A was inoculated with the 100 ml culture broth. The fermentation ran for 6 days at 26° C. and 100 rpm. The culture broth was filtrated and concentrated by ultrafiltration. Further purification was carried out using hydrophobic interaction chromatography followed by anionic exchange chromatography. This process resultated in a preparation with a laccase activity of 3.6 LACU/ml. The estimated purity was >80% on a protein basis.
The bleaching rate of DB1 was determined using the owing conditions: […]
as §6
The bleaching was followed spectrophotometrically at 610 nm, which is the wavelength of the absorption peak of DB1 with readings every 5 sec. for a period of 5 minutes. The initial bleaching rate was determined from the first linear part of the absorbance curve.

Trametes villosa laccase = biological target: T3, Trametes villosa laccase (Trametes villosa, UniProt Q99044); assay: Bleaching of Direct Blue 1 with Trametes villosa laccase with and without enhancing agents; settings: 10 μM enhancer, 30° C.
T3 construct: made in house; host or cells: Trametes villosa CBS 678.70 (native producer), purified from culture broth
T3 sequence (Q99044 22-520): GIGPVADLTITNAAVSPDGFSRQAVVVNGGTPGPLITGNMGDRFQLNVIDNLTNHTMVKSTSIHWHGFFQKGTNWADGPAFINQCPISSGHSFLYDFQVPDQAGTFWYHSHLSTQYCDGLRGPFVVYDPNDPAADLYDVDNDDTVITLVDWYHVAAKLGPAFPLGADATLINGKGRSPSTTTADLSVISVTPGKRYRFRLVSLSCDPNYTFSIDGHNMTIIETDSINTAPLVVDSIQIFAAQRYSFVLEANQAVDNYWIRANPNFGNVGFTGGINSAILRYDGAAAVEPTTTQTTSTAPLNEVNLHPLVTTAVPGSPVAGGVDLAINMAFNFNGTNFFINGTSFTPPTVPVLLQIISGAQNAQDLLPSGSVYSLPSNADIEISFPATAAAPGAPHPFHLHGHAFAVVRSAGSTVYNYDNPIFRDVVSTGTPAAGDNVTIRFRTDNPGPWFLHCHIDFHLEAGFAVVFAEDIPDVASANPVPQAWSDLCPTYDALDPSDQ
Protocol: Laccase obtained from Trametes villosa: 800 ml culture broth of Trametes villosa, CBS 678.70, was filtered with filter aid to give a clear filtrate, which was concentrated and washed by ultrafiltration on a membrane with a cut-off of 6-8 kDa. One ml samples of concentrated preparation was applied onto a Q-Sepharose HP column (Pharmacia, Sweden) equilibrated with 0.1 M fosfate pH 7, and the laccase was eluted with a flat NaCl gradient around 0.25 M. Fractions with laccase activity from 10 runs were pooled and concentrated by ultrafiltration to an activity of 500 LACU/ml.
The following conditions were used: […]
Reagents were mixed in a 1 cm thermostated cuvette at 30° C. and the bleaching was started by addition of enzyme.
The bleaching was detected spectrophotometrically at 610 nm, which is the absorption peak of DB1. After 5 sec. bleaching was followed for 4 minutes.
Bleaching of Direct Blue 1 with Trametes villosa laccase, obtained as described above, at pH 5.5 (1.6 mg/l) and pH 7.0 (16 mg/l): […]

Structure (SMILES): CCCCOC(=O)c1cc(OC)c(O)c(OC)c1 [butylsyringate]
Initial Bleaching of CSB with CiP ([1]; pH 8.5, 0.08 mg/l CiP): 228 -ΔmAbs/minute
Initial Bleaching of CSB with CiP ([1]; pH 10.5, 0.16 mg/l CiP): 48 -ΔmAbs/minute

Structure (SMILES): CCOC(=O)C=Cc1cc(OC)c(O)c(OC)c1 [ethyl 3-(4-hydroxy-3,5-dimethoxyphenyl)acrylate]
Initial Bleaching of CSB with CiP ([1]; pH 8.5, 0.08 mg/l CiP): 48 -ΔmAbs/minute
Initial Bleaching of CSB with CiP ([1]; pH 10.5, 0.16 mg/l CiP): 48 -ΔmAbs/minute

Structure (SMILES): COC(=O)c1cc(OC)c(O)c(OC)c1 [methylsyringate]
Initial bleaching rate of DB1 ([2]; C. plicalitis laccase 4 LACU/l, pH 5.5): 42 -ΔmAbs/minute
Initial bleaching rate of DB1 ([2]; C. plicalitis laccase 4 LACU/l, pH 7.0): 39 -ΔmAbs/minute
Initial bleaching rate of DB1 ([2]; C. plicalitis laccase 20 LACU/l, pH 8.5): 14 -ΔmAbs/minute
Initial Bleaching of CSB with CiP ([1]; pH 8.5, 0.08 mg/l CiP): 211 -ΔmAbs/minute
Initial Bleaching of CSB with CiP ([1]; pH 10.5, 0.16 mg/l CiP): 42 -ΔmAbs/minute
Initial bleaching rate of DB1 ([3]; Pan. papilionaceus laccase 4 LACU/l, pH 5.5): 16 -ΔmAbs/minute
Initial bleaching rate of DB1 ([3]; Pan. papilionaceus laccase 4 LACU/l, pH 7.0): 19 -ΔmAbs/minute
Initial bleaching rate of DB1 ([3]; Pan. papilionaceus laccase 20 LACU/l, pH 8.5): 18 -ΔmAbs/minute
Initial bleaching rate of DB1 ([4]; C. comatus laccase 4 LACU/l, pH 5.5): 33 -ΔmAbs/minute
Initial bleaching rate of DB1 ([4]; C. comatus laccase 4 LACU/l, pH 7.0): 23 -ΔmAbs/minute
Initial bleaching rate of DB1 ([4]; C. comatus laccase 20 LACU/l, pH 8.5): 2 -ΔmAbs/minute
Initial bleaching rate of DB1 ([5]; C. friesii laccase 4 LACU/l, pH 5.5): 40 -ΔmAbs/minute
Initial bleaching rate of DB1 ([5]; C. friesii laccase 4 LACU/l, pH 7.0): 55 -ΔmAbs/minute
Initial bleaching rate of DB1 ([5]; C. friesii laccase 20 LACU/l, pH 8.5): 61 -ΔmAbs/minute
Initial bleaching rate of DB1 ([6]; Ps. condolleana laccase 4 LACU/l, pH 5.5): 45 -ΔmAbs/minute
Initial bleaching rate of DB1 ([6]; Ps. condolleana laccase 4 LACU/l, pH 7.0): 54 -ΔmAbs/minute
Initial bleaching rate of DB1 ([6]; Ps. condolleana laccase 20 LACU/l, pH 8.5): 43 -ΔmAbs/minute
Initial Bleaching of Direct Blue 1 with CiP ([7]; pH 8.5, 0.08 mg/l CiP): 245 -ΔmAbs/minute
Initial Bleaching of Direct Blue 1 with CiP ([7]; pH 10.5, 0.16 mg/l CiP): 8 -ΔmAbs/minute
Initial bleaching rate of DB1 ([8]; pH 5.5): 20 -ΔmAbs/minute
Initial bleaching rate of DB1 ([8]; pH 7.0): 94 -ΔmAbs/minute
Initial bleaching rate of DB1 ([8]; pH 8.5): 57 -ΔmAbs/minute

Structure (SMILES): COc1cc(C=O)cc(OC)c1O [syringaldehyde]
DB1 bleaching in 4 minutes (Trametes villosa laccase; pH 5.5, Trametes villosa laccase 1.6 mg/l): 438 -ΔmAbs/4 min
DB1 bleaching in 4 minutes (Trametes villosa laccase; pH 7.0, Trametes villosa laccase 16 mg/l): 112 -ΔmAbs/4 min
Initial Bleaching of Direct Blue 1 with CiP ([7]; pH 8.5, 0.08 mg/l CiP): 151 -ΔmAbs/minute
Initial Bleaching of Direct Blue 1 with CiP ([7]; pH 10.5, 0.16 mg/l CiP): 4 -ΔmAbs/minute
Initial bleaching rate of DB1 ([8]; pH 5.5): 29 -ΔmAbs/minute
Initial bleaching rate of DB1 ([8]; pH 7.0): 79 -ΔmAbs/minute
Initial bleaching rate of DB1 ([8]; pH 8.5): 28 -ΔmAbs/minute

Other lines, results leading:

Initial Bleaching of CSB with CiP ([1]; pH 8.5, 0.08 mg/l CiP): 240 -ΔmAbs/minute
Initial Bleaching of CSB with CiP ([1]; pH 10.5, 0.16 mg/l CiP): 52 -ΔmAbs/minute
Structure (SMILES): CCOC(=O)c1cc(OC)c(O)c(OC)c1 [ethylsyringate]

Initial Bleaching of CSB with CiP ([1]; pH 8.5, 0.08 mg/l CiP): 276 -ΔmAbs/minute
Initial Bleaching of CSB with CiP ([1]; pH 10.5, 0.16 mg/l CiP): 36 -ΔmAbs/minute
Structure (SMILES): CCCCCCOC(=O)c1cc(OC)c(O)c(OC)c1 [hexylsyringate]

Initial Bleaching of CSB with CiP ([1]; pH 8.5, 0.08 mg/l CiP): 192 -ΔmAbs/minute
Initial Bleaching of CSB with CiP ([1]; pH 10.5, 0.16 mg/l CiP): 15 -ΔmAbs/minute
Structure (SMILES): CCCCCCCCOC(=O)c1cc(OC)c(O)c(OC)c1 [octylsyringate]

Initial Bleaching of CSB with CiP ([1]; pH 8.5, 0.08 mg/l CiP): 228 -ΔmAbs/minute
Initial Bleaching of CSB with CiP ([1]; pH 10.5, 0.16 mg/l CiP): 60 -ΔmAbs/minute
Structure (SMILES): CCCOC(=O)c1cc(OC)c(O)c(OC)c1 [propylsyringate]
